This is an account of results in patent US11951197B2, “Use of volatile compounds to modulate the perception of floral muguet” (FIRMENICH SA, priority 2018, dated 2024).

For series [1], the target named is T1, Olfr16 (Mus musculus, UniProt Q62007).
T1 construct: expressed in transfected cells
T1 sequence (Q62007 1-309): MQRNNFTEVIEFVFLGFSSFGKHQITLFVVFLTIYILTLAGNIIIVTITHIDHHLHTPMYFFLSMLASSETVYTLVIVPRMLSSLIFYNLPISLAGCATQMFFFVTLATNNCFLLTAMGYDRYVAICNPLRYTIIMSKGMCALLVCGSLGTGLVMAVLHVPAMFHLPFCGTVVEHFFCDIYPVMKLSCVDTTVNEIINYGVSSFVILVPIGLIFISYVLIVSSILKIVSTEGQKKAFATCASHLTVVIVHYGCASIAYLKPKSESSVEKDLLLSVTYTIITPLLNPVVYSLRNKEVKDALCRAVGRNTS
Description: LYRAL® dose-response with a steady concentration of test compound (EC50-fold shift). Format: cell-based. The settings on record: Olfr16 (mouse ortholog); LYRAL® + steady concentration of compound vs LYRAL® alone. The method, then:
(§1) LYRAL® enhancement specificity was tested on compounds that were structurally similar to enhancers identified. Dose response curves to LYRAL® were obtained in the presence of a steady concentration of a test compound and compared to a dose-response curve of LYRAL® alone. The resulting enhancement was quantified by means of EC50-fold shift (potency increase) and the efficacy span ratio (efficacy increase).
The EC50-fold shift was obtained by dividing the EC50 of LYRAL®+compound by the reference EC50 of LYRAL® alone. The span ratio was obtained by dividing the span of LYRAL®+compound by the reference span of LYRAL® alone.

The target in series [2] is T2, OR10J5 (Homo sapiens, UniProt Q8NHC4).
T2 construct: Flag; Rho (rhodopsin-derived tag); expressed in transfected cells
T2 sequence (Q8NHC4 1-309): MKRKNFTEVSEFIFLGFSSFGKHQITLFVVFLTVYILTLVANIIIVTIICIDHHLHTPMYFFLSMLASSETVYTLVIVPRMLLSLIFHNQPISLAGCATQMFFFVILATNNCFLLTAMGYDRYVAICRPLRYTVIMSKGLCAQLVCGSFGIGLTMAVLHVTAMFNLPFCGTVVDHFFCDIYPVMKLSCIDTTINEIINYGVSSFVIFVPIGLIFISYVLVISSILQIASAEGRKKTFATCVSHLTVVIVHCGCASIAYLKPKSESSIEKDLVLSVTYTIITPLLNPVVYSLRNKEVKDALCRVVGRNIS
The description is as above. Type of series: cell-based. The settings on record: LYRAL® + steady concentration of compound vs LYRAL® alone. The method, then:
(§2) A dose response curve showing the activation of OR10J5 in response to the floral muguet compound 3-(4-hydroxy-4-methylpentyl)cyclohex-3-ene-1-carbaldehyde, 4-(4-hydroxy-4-methylpentyl)cyclohex-3-ene-1-carbaldehyde or a mixture thereof (sold under the tradename LYRAL®, hereinafter referred to as “LYRAL®”) is shown in FIG. 1. Using a cell-based assay, OR10J5 activity was tested in a HEK293T cell line wherein the endogenous chaperone RTP1 gene has been activated and the odorant receptor chaperone was expressed according to the methods disclosed in International Patent Application Publication No. WO2016/201153 A1. The Flag-Rho-tagged receptor was co-transfected with the olfactory canonical G-protein Golf and was exposed to a binary mixture of a single concentration of LYRAL® and a test compound.
as §1
The EC50-fold shift was obtained by dividing the EC50 of LYRAL®+compound by the reference EC50 of LYRAL® alone. […]

The target of series [3] is T2, OR10J5. Description: (+−)-2,5-dimethyl-2-indanmethanol dose-response with a steady concentration of test compound. Type of series: cell-based. The note with it: OR10J5; for EC50 fold shift of (+−)-2,5-dimethyl-2-indanmethanol: agonist + steady concentration of compound vs agonist alone. The method, then:
OR10J5 activity enhancement was tested with an additional agonist and with one of the test compounds and conditions described in the Examples above. Dose response curves to (+−)-2,5-dimethyl-2-indanmethanol was obtained in the presence of a steady concentration of the test compound and compared to a dose-response curve of the agonist alone. The resulting enhancement was quantified by means of EC50-fold shift (potency increase) and the efficacy span ratio (efficacy increase) as described above.

The target in series [4] is T3, OR10J5 olfactory receptor (Homo sapiens, UniProt Q8NHC4).
T3 construct: Flag; Rho (rhodopsin-derived tag); expressed in transfected cells
T3 sequence (Q8NHC4 1-309): T2 sequence (Q8NHC4 1-309)
The series is described as follows: Dose-response confirmation of enhancer candidates, alone and with EC20 LYRAL®. Type of series: cell-based. The note with it: response to LYRAL® raised beyond EC20 without measurable intrinsic activity. How it is done: as §2
A library of volatile compounds was used to create binary mixtures of each compound with LYRAL® at approximately EC20, a concentration eliciting only approximately 20% of full activity level of OR10J5 by itself. An activation cell-based assay was used for the initial enhancer candidate identification as disclosed in WO2019122236. Single binary mixture-induced receptor activity was detected by measuring the cAMP increase in the cytosol using an HTRF (Homogenous Time-Resolved Fluorescence unit) based kit (CisBio, cAMP dynamic 2 kit, 62AM4PEJ).
The 37 candidates remaining in Table 2 were identified and were tested in two parallel dose-response experiments to confirm the true enhancement properties of the potential candidates. First, a dose-response of each individual candidate was performed to determine if it was an agonist by itself. Second, the same candidate dose-response curve in the presence of EC20 LYRAL® concentration (generating 20% activity on OR10J5) was assessed for activity level increase.

The target of series [5] is T2, OR10J5. The series is described as follows: LYRAL® dose-response with serial enhancer concentrations, allosteric EC50 shift model. Format: cell-based. The method, then: Functional dose-response experiments were performed to reveal the allosteric nature of the interaction between 3-(1,3-benzodioxol-5-yl)-2-methylpropanal, 3-(4-methylcyclohex-3-en-1-yl)butanal, 2,6-dimethylhept-5-enal and heptanal and OR10J5. The level of enhancement of OR10J5's activation was evaluated at distinct concentrations of each enhancer. Using the same cell-based assay described earlier, dose response curves of OR10J5 to LYRAL® in the presence of serial concentrations of the enhancers spanning from 0 to 600 μM were performed, see FIG. 5. The curves were obtained by applying the simplified Allosteric EC50 shift effect equation (available in Prism7) derived from the ternary complex interaction model. The enhancement levels recorded were not linearly dependent on the concentration of the enhancer, and the following key parameters values for α (the cooperativity factor) and KB (the equilibrium dissociation constant of the enhancer) were obtained from the model for each enhancer: 3-(1,3-benzodioxol-5-yl)-2-methylpropanal, α=6.3 and KB=10 μM; 3-(4-methylcyclohex-3-en-1-yl)butanal, α=7.5 and KB=15 μM; 2,6-dimethylhept-5-enal, α=4.1 and KB=16 μM; and heptanal; α=3.2 and KB=51 μM. α>1 is indicative of positive allosteric modulation.

Series [6] is described as follows: Odor detection threshold (ODT) forced-choice triangle tests for LYRAL® with background odor. Type of series: in vivo, human. The settings on record: 28 panelists; enhancer at 0.1% vs neutral compound at 7%; main effect of Material p=0.03, interaction p=0.052. The method, then:
Sensitivity of human individuals to LYRAL® was evaluated by performing an odor detection threshold (ODT) test. The ODT test consisted of identifying the concentration for which 50%, preferably 66%, of the panelists are able to determine which of three containers contains the target compound LYRAL® in a series of forced-choice triangle tests. Two tests were performed to calculate the ODT in mixtures containing LYRAL® plus a perceivable background odor of chemically similar molecules a) the enhancer, 3-(4-methylcyclohex-3-en-1-yl)butanal and b) the non-enhancing volatile compound, 3-[(1R)-4-methyl-3-cyclohexen-1-yl]-1-butanol. These two molecules are chemically similar. The perceived intensity of the two background odors was monitored to be isointense to control that the responses recorded answer were intensity independent.
28 panelists were given a series of triangle tests with increasing concentrations of LYRAL® in the presence of 3-(4-methylcyclohex-3-en-1-yl)butanal at a concentration of 0.1%. Within each triangle test, the three samples contained 3-(4-methylcyclohex-3-en-1-yl)butanal at 0.1% and one sample also contained LYRAL®. 28 panelists were given a series of triangle tests with increasing concentration of Lyral® in the presence of 3-[(1R)-4-methyl-3-cyclohexen-1-yl]-1-butanol at a concentration of 7%. […]

Turning to `O=Cc1ccc2c(c1)OCO2` [benzo[d][1,3]dioxole-5-carbaldehyde, reference compound], the results for the “EC50 fold shift of LYRAL® (potency increase)” value in series [1] and in series [2] were 1.5 fold and 1.8 fold, respectively. The “EC50 fold shift of (+−)-2,5-dimethyl-2-indanmethanol” value in series [3] was 2.0 fold.

On to `CC(C=O)Cc1ccc2c(c1)OCO2` (stereo not drawn) [3-(1,3-benzodioxol-5-yl)-2-methylpropanal], for which the “enhancement of OR10J5 LYRAL® activation (true enhancer)” value in series [4] is “potent enhancement”. Further, the results for the “EC50 fold shift of LYRAL® (potency increase)” value in series [1] and in series [2] were 5 fold and 9.2 fold, respectively. The Kb in series [5] is 10 µM. For the same compound, in series [5] (enhancer 0 to 600 μM, allosteric EC50 shift equation (Prism7), α>1 indicates positive allosteric modulation), the “α (cooperativity factor)” value came out at 6.3. The “EC50 fold shift of (+−)-2,5-dimethyl-2-indanmethanol” value in series [3] amounted to 8.6 fold. Besides, in series [3] (within the dynamic range of the dose response), the “efficacy increase (span ratio) of (+−)-2,5-dimethyl-2-indanmethanol” value stood at 1.7 fold.

In the case of `CC1=CC[C@H](C(C)CC=O)CC1` (stereo partly drawn) [3-(4-methylcyclohex-3-en-1-yl)butanal], the “enhancement of OR10J5 LYRAL® activation (true enhancer)” value in series [4] is on record as “potent enhancement”. Further, in series [6], the “proportion of correct LYRAL® detection responses with increasing LYRAL® concentration” value is “proportion of correct responses increased at a higher rate”.
